Measurements published in patent US7482329B2, “Single domain TDF-related compounds and analogs thereof” (Thrasos Therapeutics, priority 2002, dated 2009).

What was measured:
[1] = target: T1, BMPR-2 receptor extra cellular domain (Homo sapiens, UniProt Q13873); experiment: Radio-ligand receptor binding assay, competition with 125I-labeled TDF-1 for BMPR-2; conditions: competitive binding, FIG. 4
T1 construct: immobilized BMPR-2 receptor extra cellular domain (ECD)
T1 sequence (Q13873 27-150 limits assumed): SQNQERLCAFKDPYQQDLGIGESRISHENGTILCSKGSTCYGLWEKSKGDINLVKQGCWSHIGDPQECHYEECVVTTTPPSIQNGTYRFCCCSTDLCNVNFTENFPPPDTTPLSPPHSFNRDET
Text: (§1) General protocol: These assays are based on competition between ^125I-labeled TDF-1 (BMP-7 or OP-1) and candidate TDFRP compounds or unlabeled TDF-1 for binding to respective receptors (ALK-3, ALK-6 or BMPR-2). In brief, the procedure involves immobilization of receptor on 96 well Removawell plates, blocking the wells with 3% BSA in PBS and subsequently washing the wells. Increasing concentrations of unlabeled TDF-1 or TDFRP compounds or control (unlabeled TDF-1) prepared in binding buffer are then added. Incubate plate for 1 hour at room temperature, and then add a fixed amount of ^125I-labeled TDF-1 (250,000 to 350,000 cpm) to the wells and further incubate in cold (4° C.) for 20 hours. Aspirate the contents of the wells and wash the wells four times with a wash buffer, and count the receptor bound ^125I-labeled TDF-1 in an auto gamma counter. B. HK-2 Cell Culture and Determination of Cytokine Production

[2] = target: T2, BMPR-1A (ALK3) receptor extra cellular domain (Homo sapiens, UniProt P36894); experiment: Radio-ligand receptor binding assay, competition with 125I-labeled TDF-1 for ALK-3; conditions: competitive binding assay, FIG. 2
T2 construct: immobilized BMPR-1A receptor extra cellular domain (ECD)
T2 sequence (P36894 24-152 limits assumed, species assumed): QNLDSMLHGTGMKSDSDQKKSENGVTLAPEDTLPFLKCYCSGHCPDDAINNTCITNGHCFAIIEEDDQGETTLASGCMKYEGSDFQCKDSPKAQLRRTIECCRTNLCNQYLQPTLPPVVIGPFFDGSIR
Text: as §1

[3] = tested on: HK-2 cells; experiment: Anti-inflammatory activity in HK-2 cell culture (FIG. 11-13); assay type: cell-based, human; conditions: marker not stated
Method: (§2) The immortalized PTEC-derived HK-2 (Human Kidney-2) cells (ATCC number CRL-2190) were grown in serum-free keratinocyte medium (GIBCO number 17005-042) supplemented with epidermal growth factor (EGF: 5 ng/mL) and bovine pituitary extract (40 ug/mL) for 48 hours as described previously (Ryan et al (1994) Kidney International 45:48-57). Cells were transferred to 24-well plates at a density of 3×10^5 cells per well. After 24 hours, cells were incubated with fresh medium containing TNF-alpha (5 ng/mL) for 20 hours. Controls received medium alone. Then cells were washed twice with fresh culture medium and further incubated with culture medium alone (medium control, and TNF control wells) or TDF-1 at three different concentrations (40, 200 or 1000 ng/mL) or TDFRP compounds at three different concentrations (4, 20 or 100 uM) for sixty hours. During incubation, cells were kept in a 5% CO2 humid atmosphere at 37° C. At the end of the incubation, the media were removed and stored frozen until assayed. The concentrations of IL-6 and sICAM-in culture supernatants were measured by specific ELISA.

[4] = tested on: IL-6 in HK2 human transformed kidney proximal tubule cells; experiment: IL-6 level in HK-2 cell medium after TNF-alpha stimulation (ELISA); assay type: cell-based; conditions: after TNF-alpha inflammatory stimulation, FIG. 6, FIG. 10
Method: as §2
Dilute the capture antibody to the working concentration in PBS, pH 7.4 without carrier protein. Add 61 uL of stock antibody (360 ug/mL) to 10.939 mL of PBS, gently vertex. Immediately coat a 96 well microplate (Immulon 4 HBX) with 100 uL per well of the diluted capture antibody. Seal the plate and incubate it overnight in cold (4° C.). (PBS: 8.1 mM Na2HPO4, 1.5 mM KH2PO4, 137 mM NaCl, 2.7 mM KCl, pH 7.4, 0.2 um filtered). Next day empty the wells and wash the wells three times, each time using 340 uL of wash buffer per well. (wash buffer: PBS, pH 7.4 containing 0.05% Tween-20).
Prepare blocking buffer, 35 mL per plate. To prepare blocking buffer, add 0.35 grams of BSA and 1.75 grams of sucrose to 35 mL of PBS, pH 7.4, and mix the contents gently. Add 300 uL of blocking buffer to each well and incubate the plate for a minimum of 1 hour at room temperature. Empty the wells and wash wells three times, each time using 340 uL of wash buffer per well.
Prepare a 8 point standard curve using 2-fold serial dilutions in reagent diluent. Dilute stock standard, recombinant IL-6, 70 ng/mL to an initial concentration of 2400 ng/mL in reagent diluent. Then further dilute the standard to a working range, 1200, 600, 300, 150, 75, 37.5, 18.75 and 9.375 ng/mL using reagent diluent. (to prepare reagent diluent, add 0.4 grams of BSA to 40 mL of PBS, pH 7.4 and gently vertex). Also dilute 24 uL of each sample medium (from HK-2 cell cultures) with 376 uL of reagent diluent. Add 100 uL of standard or sample per well, seal the plate and incubate it overnight in cold (4° C.).
Next day, empty the wells and wash wells three times, each time using 340 uL of wash buffer per well. […]

Substance	anti-inflammatory activity [3]	further results
CIVNSSDDFLCKKYRS [SEQ ID NO:16, negative control peptide]		specific binding to BMPR-2 / inhibition of specific binding of labeled TDF-1 to BMPR-2 receptor [1]: does not inhibit; specific binding to ALK3 / inhibition of specific binding of labeled TDF-1 to ALK3 receptor [2]: does not inhibit
CLFDDSSNVICKKYRS [SEQ ID NO:15]	very weak anti-inflammatory activity	
CYFDDNSNVICKKYRS [SEQ ID NO:42]	no anti-inflammatory activity	
CYFDDSSNVICK [SEQ ID NO:21]	no anti-inflammatory activity	specific binding to ALK3 / inhibition of specific binding of labeled TDF-1 to ALK3 receptor [2]: specifically binds
CYFDDSSNVICKK [SEQ ID NO:20]	no anti-inflammatory activity	
CYFDDSSQVICKKYRS [SEQ ID NO:43]		effect on level of IL-6 in HK2 cell medium [4]: brings the IL-6 level down below the basal level
TP2.006: peptide printed as SEQ ID NO:45 in FIG. 12 legend; conflicts with TP2.003 = SEQ ID NO:45 in b271 (CYFDDSSNVLCKKYRS)	no anti-inflammatory activity	
